Test results reported in ChEMBL document CHEMBL3576821, “A potent antimicrobial compound isolated from Clathria cervicornis” (2015).
Converted amounts (≈) assume the structure as drawn.

Legend:
Format in all cases: functional
Acinetobacter baumannii = experiment: Antimicrobial activity against Acinetobacter baumannii ATCC 19606 assessed as bacterial growth inhibition after 24 hrs by standard broth microdilution method; details: ATCC 19606, 24 h
Klebsiella pneumoniae = experiment: Antimicrobial activity against Klebsiella pneumoniae ATCC 13883 assessed as bacterial growth inhibition after 24 hrs by standard broth microdilution method; details: ATCC 13883, 24 h
Pseudomonas aeruginosa = experiment: Antimicrobial activity against Pseudomonas aeruginosa ATCC 10145 assessed as bacterial growth inhibition after 24 hrs by standard broth microdilution method; details: ATCC 10145, 24 h

SMILES	MIC (Acinetobacter baumannii) [mg/L]	MIC (Klebsiella pneumoniae) [mg/L]	MIC (Pseudomonas aeruginosa) [mg/L]
O=C(O)c1cn(C2CC2)c2cc(N3CCNCC3)c(F)cc2c1=O [CIPROFLOXACIN]	2 (≈ 6.04 µM)	1 (≈ 3.02 µM)	1 (≈ 3.02 µM)
CC[C@H]1CCCC[C@@]2(C[C@@H]3CC[C@@H]4[C@H](C(=O)OCCCCCCCCCCCCCCCC(=O)N(CCCN)C[C@@H](O)CCN)[C@]5(CCC[C@@H](C)O5)N=C(N2)N34)O1 [CRAMBESCIDIN 800]	2 (≈ 2.49 µM)	1 (≈ 1.25 µM)	1 (≈ 1.25 µM)
C[C@H]1COc2c(N3CCN(C)CC3)c(F)cc3c(=O)c(C(=O)O)cn1c23.C[C@H]1COc2c(N3CCN(C)CC3)c(F)cc3c(=O)c(C(=O)O)cn1c23.O [LEVOFLOXACIN]	1	–	–
CN(C)[C@@H]1C(O)=C(C(N)=O)C(=O)[C@@]2(O)C(O)=C3C(=O)c4c(O)cccc4[C@@](C)(O)[C@H]3C[C@@H]12 [TETRACYCLINE]	2 (≈ 4.5 µM)	1 (≈ 2.25 µM)	1 (≈ 2.25 µM)
